Experimental data taken from patent US20250215010A1, “DIAZABICYCLOOCTANE DERIVATIVES USEFUL AS MATRIX METALLOPROTEINASE INHIBITORS” (VASA THERAPEUTICS SPOLKA Z OGRANICZONA ODPOWIEDZIALNOSCIA, priority 2022, published 2025).
Where two headings read alike, the source gives them in different places.

How the values were obtained:
Format in all cases: biochemical
MMP13 = target: T1, MMP13 (Homo sapiens, UniProt P45452); test: MMP-13 colorimetric inhibition assay (Enzo kit BML-AK412)
T1 construct: purchased Enzo Life Sciences, Inc. BML-AK412
Outline: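 Thiopeptide chromogenic substrate (Ac-PLG-[2-mercapto-4-methylpentanoyl]-LG-OC2H5); MMP-13 hydrolysis of the thioester yields a thiol that reacts with DTNB, read at 415 nm. IC50 values (nM) derived from inhibition curves of normalized data.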

MMP9 = MMP9 (Homo sapiens, UniProt P14780); test: MMP-9 colorimetric inhibition assay (Enzo kit BML-AK410)
Outline: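 Colorimetric thioester-substrate assay: hydrolysis of Ac-PLG-[2-mercapto-4-methylpentanoyl]-LG-OC2H5 frees a thiol that reacts with DTNB, read at 415 nm. Run per kit protocol. IC50 (nM) taken from inhibition curves of normalized values.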

MMP1 = target: T2, MMP1 (Homo sapiens, UniProt P03956); test: MMP-1 colorimetric inhibition assay (Enzo kit BML-AK404)
T2 sequence (P03956 100-269 limits assumed): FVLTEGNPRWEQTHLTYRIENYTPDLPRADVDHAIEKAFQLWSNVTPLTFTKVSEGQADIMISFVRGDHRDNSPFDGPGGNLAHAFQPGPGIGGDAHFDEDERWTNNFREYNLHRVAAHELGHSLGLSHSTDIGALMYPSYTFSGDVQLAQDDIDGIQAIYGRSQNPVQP
Outline: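 Colorimetric kit run per manufacturer protocol. MMP-1 cleaves a thiopeptide substrate (Ac-PLG-[2-mercapto-4-methylpentanoyl]-LG-OC2H5); released thiol reacts with DTNB, monitored at 415 nm. IC50 (nM) from inhibition curves of normalized values.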

ADAM10 = target: T3, ADAM10 (Homo sapiens, UniProt O14672); test: SensoLyte 520 ADAM10 fluorometric activity assay (AnaSpec AS-72226)
T3 construct: purchased AnaSpec, Inc. AS-72226
T3 sequence (O14672 214-748): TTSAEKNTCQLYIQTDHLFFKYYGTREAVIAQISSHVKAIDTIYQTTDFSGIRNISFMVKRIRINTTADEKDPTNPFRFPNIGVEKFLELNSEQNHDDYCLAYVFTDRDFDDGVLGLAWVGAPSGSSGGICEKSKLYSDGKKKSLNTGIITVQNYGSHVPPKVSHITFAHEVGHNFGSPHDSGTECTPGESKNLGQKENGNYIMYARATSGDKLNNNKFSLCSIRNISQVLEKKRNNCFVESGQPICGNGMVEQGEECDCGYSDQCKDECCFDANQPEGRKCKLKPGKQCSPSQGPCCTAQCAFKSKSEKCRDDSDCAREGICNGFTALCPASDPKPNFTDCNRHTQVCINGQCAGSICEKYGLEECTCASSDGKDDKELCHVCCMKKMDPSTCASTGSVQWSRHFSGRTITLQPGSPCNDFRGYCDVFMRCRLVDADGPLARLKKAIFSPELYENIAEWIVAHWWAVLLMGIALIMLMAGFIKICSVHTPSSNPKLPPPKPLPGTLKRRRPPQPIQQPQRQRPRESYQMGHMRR
Outline: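 ADAM10 activity was read by cleavage of a FRET peptide substrate (5-FAM/QXL 520), run per the kit protocol, with fluorescence at 495/520 nm. IC50 values (nM) came from inhibition curves of normalized data.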

ADAM17 (TACE) = ADAM17 (TACE) (Homo sapiens, UniProt P78536); test: TACE fluorometric inhibition assay (Enzo kit BML-AK310)
Outline: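 Kit-based TACE assay run per manufacturer's protocol, using quenched fluorogenic peptide Mca-PLAQAV-Dpa-RSSSR-NH2 whose cleavage raises Mca fluorescence. Signal read at ex/em 320/420 nm; IC50 (nM) derived from inhibition curves of normalized values.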

MMP2 = target: T4, MMP2 (Homo sapiens, UniProt P08253); test: MMP-2 colorimetric inhibition assay (Enzo kit BML-AK408)
T4 sequence (P08253 110-660): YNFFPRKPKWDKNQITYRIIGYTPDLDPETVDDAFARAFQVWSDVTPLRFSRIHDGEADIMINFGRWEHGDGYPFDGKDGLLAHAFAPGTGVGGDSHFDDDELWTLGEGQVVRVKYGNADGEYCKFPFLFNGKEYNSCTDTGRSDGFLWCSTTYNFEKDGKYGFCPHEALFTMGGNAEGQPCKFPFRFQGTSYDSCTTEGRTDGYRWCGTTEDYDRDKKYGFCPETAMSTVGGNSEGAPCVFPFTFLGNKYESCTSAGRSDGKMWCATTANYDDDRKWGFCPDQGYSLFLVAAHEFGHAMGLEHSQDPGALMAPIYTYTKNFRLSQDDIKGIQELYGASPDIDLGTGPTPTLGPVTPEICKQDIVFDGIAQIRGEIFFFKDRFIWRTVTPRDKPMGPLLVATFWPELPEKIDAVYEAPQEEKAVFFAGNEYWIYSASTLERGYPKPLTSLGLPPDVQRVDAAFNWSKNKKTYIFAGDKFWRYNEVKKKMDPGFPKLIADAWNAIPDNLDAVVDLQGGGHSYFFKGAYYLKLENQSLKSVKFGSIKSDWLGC
Outline: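 Cleavage of the thiopeptide Ac-PLG-[2-mercapto-4-methylpentanoyl]-LG-OC2H5 releases a sulfhydryl that reacts with DTNB, read at 415 nm per the kit protocol. IC50 values (nM) come from inhibition curves of normalized data.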

[1] = thiopeptide substrate, absorbance 415 nm, read-out: MMP 13 IC50 class
[2] = thiopeptide substrate, absorbance 415 nm, read-out: MMP 9 IC50 class
[3] = thiopeptide substrate, absorbance 415 nm, read-out: MMP 1 IC50 class
[4] = FRET peptide substrate, ex/em 495/520 nm, read-out: ADAM 10 IC50 class
[5] = quenched fluorogenic peptide, ex/em 320/420 nm, read-out: TACE IC50 class
[6] = thiopeptide substrate, absorbance 415 nm, read-out: MMP 2 IC50 class

ADAM17 (TACE), sequence (P78536 215-477 limits assumed): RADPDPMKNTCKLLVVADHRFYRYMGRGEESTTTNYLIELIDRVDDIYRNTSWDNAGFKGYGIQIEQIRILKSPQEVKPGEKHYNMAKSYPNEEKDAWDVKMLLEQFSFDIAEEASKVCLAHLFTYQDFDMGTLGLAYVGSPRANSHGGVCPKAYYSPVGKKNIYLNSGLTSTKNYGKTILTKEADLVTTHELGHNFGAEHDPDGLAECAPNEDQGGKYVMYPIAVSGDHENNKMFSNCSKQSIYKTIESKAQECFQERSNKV
MMP9, sequence (P14780 94-707): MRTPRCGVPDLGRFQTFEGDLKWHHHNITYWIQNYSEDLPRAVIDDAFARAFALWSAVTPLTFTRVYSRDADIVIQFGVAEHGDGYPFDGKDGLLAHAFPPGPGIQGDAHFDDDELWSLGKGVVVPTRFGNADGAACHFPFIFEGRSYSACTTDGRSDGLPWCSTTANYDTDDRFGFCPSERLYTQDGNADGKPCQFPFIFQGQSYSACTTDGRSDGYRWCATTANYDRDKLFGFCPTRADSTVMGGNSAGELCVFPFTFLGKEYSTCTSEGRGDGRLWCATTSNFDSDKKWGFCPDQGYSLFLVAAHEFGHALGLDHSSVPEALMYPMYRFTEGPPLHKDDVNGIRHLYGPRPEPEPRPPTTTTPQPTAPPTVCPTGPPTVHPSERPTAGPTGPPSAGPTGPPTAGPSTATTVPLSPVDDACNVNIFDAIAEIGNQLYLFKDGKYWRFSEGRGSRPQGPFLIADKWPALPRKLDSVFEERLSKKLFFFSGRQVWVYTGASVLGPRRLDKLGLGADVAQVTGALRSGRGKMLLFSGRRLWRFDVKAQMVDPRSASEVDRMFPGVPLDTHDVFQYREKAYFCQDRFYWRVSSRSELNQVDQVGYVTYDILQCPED

Row | Compound | IC50 (MMP13; [1]) [µM] | IC50 (MMP9; [2]) [µM] | IC50 (MMP1; [3]) [µM] | IC50 (ADAM10; [4]) [µM] | IC50 (ADAM17 (TACE); [5]) [µM] | IC50 (MMP2; [6]) [µM] | IC50 (MMP13) [µM] | IC50 (MMP9) [µM] | IC50 (MMP1) [µM] | IC50 (ADAM10) [µM] | IC50 (ADAM17 (TACE)) [µM] | IC50 (MMP2) [µM]
1 | CCOC(=O)N1[C@@H]2CC[C@H]1[C@H](C(=O)NO)N(S(=O)(=O)c1ccc(Oc3ccc(F)cc3)nc1)C2 [Example 65, ethyl (1S,2R,5R)-3-((6-(4-fluorophenoxy)pyridin-3-yl)sulfonyl)-2-(hydroxycarbamoyl)-3,8-diazabicyclo[3.2.1]octane-8-carboxylate] | < 0.05 | < 0.05 | 0.05 to 1 | > 10 | 1 to 10 | < 0.05 |  |  |  |  |  | 
2 | COC(=O)N1[C@@H]2CC[C@H]1[C@H](C(=O)NO)N(S(=O)(=O)c1ccc(Oc3ccc(F)cc3)nc1)C2 [Example 66, methyl (1S,2R,5R)-3-((6-(4-fluoro-phenoxy)pyridin-3-yl)sulfonyl)-2-(hydroxycarbamoyl)-3,8-diazabicyclo-[3.2.1]octane-8-carboxylate] | < 0.05 | < 0.05 | 1 to 10 | > 10 | 1 to 10 | < 0.05 |  |  |  |  |  | 
3 | CC(C)OC(=O)N1[C@@H]2CC[C@H]1[C@H](C(=O)NO)N(S(=O)(=O)c1ccc(Oc3ccc(F)cc3)nc1)C2 [Example 67, isopropyl (1S,2R,5R)-3-((6-(4-fluorophenoxy)-pyridin-3-yl)-sulfonyl)-2-(hydroxycarbamoyl)-3,8-diazabicyclo-[3.2.1]octane-8-carboxylate] | < 0.05 | < 0.05 | 0.05 to 1 | > 10 | 1 to 10 | < 0.05 |  |  |  |  |  | 
4 | O=C(NO)[C@H]1[C@@H]2CC[C@H](CN1S(=O)(=O)c1ccc(Oc3ccc(OC(F)(F)F)cc3)nc1)N2C(=O)N1CCOCC1 [Example 70, (1S,2R,5R)-N-hydroxy-8-(morpholine-4-carbonyl)-3-((6-(4-(trifluoromethoxy)-phenoxy)pyridin-3-yl)sulfonyl)-3,8-diazabicyclo[3.2.1]-octane-2-carboxamide] | < 0.05 | < 0.05 | > 10 | > 10 | 1 to 10 | < 0.05 |  |  |  |  |  | 
5 | O=C(NO)[C@H]1[C@@H]2CC[C@H](CN1S(=O)(=O)c1ccc(Oc3ccc(OCC(F)(F)F)cc3)nc1)N2C(=O)N1CCOCC1 [Example 72, (1S,2R,5R)-N-hydroxy-8-(morpholine-4-carbonyl)-3-((6-(4-(2,2,2-trifluoroethoxy)-phenoxy)pyridin-3-yl)sulfonyl)-3,8-diazabicyclo[3.2.1]-octane-2-carboxamide] |  |  |  |  |  |  | < 0.05 | < 0.05 | 1 to 10 | > 10 | > 10 | < 0.05
6 | COc1ccc(Oc2ccc(S(=O)(=O)N3C[C@H]4CC[C@@H]([C@@H]3C(=O)NO)N4C(=O)N3CCOCC3)cn2)cc1F [Example 73, (1S,2R,5R)-3-((6-(3-fluoro-4-methoxy-phenoxy)pyridin-3-yl)-sulfonyl)-N-hydroxy-8-(morpholine-4-carbonyl)-3,8-diazabicyclo[3.2.1]-octane-2-carboxamide] | < 0.05 | < 0.05 | > 10 | 1 to 10 | 1 to 10 | < 0.05 |  |  |  |  |  | 
